Non-standard residues stand in square brackets, D forms with d. Residues, ends and D or L forms follow the SMILES beside them. hArg = N=C(N)NCCCC[C@H](N)C(=O)O; Ac5c = NC1(C(=O)O)CCCC1; Aib = CC(C)(N)C(=O)O
Columns and labels:
[1] = target: T1, P1R (recombinant P1R chimera) in HKRK-B28 cells (UniProt P25107+P25961, A364S/A509S/A517P/A524T/DEL519-521/E344G/G506A/H528S/I365V/I416T/I429T/K402R/K465R/L320I/M408V/N352H/S511P/S523T/T335G/T421L/T487S/V367L/V433I); test: biochemical; format: binding, opposum/rat chimera; conditions: B28 cells
T1 construct: the opposum P1R from the N-terminus to the mid region of TM3; the rat P1R from the mid region of TM3 to the C-terminus; expressed in transfected cells
Text: Cell Culture. The cell line HKRK-B28 (Takasu, H., et al., J. Bone Miner. Res. 14:11-20 (1999)) was derived from the porcine kidney cell line, LLC-PK1 by stable transfection with plasmid DNA encoding a recombinant P1R chimera comprised of the opposum P1R from the N-terminus to the mid region of TM3 and the rat P1R from the mid region of TM3 to the C-terminus. The surface density of the P1R in these cells is ˜280,000 receptors per cell. The clonal cell line LdelNt-2 was derived from LLC-PK, cells via stable transfection with a plasmid encoding P1R-delNt, a recombinant human PTH-1 receptor construct in which most of the amino-terminal extracellular domain is deleted. These cells, as well as COS-7 cells and SaOS-2-B10 cells, were cultured at […] in T-75 flasks ([…]) in Dulbecco's modified Eagle's medium (DMEM) supplemented with fetal bovine serum (10%), penicillin G (20 units/ml), streptomycin sulfate (20 μg/ml) and amphotericin B (0.05 μg/ml) in a humidified atmosphere containing 5% CO2. Stock solutions of EGTA/trypsin and antibiotics were from GLBCO; fetal bovine serum was from Hyclone Laboratories (Logan, Utah). COS-7 cells sub-cultured in 24-well plates were transfected with plasmid DNA (200 ng per well) encoding the wild-type human P1R or truncated human P1R deleted for residues (24-181) (Shimizu, M., et al., J. Biol. Chem. 275:21836-21843 (2000)) that was purified by cesium chloride/ethidium bromide density gradient centrifugation, and FuGENE 6 transfection reagent (Roche Indianapolis Ind.) according to the manufacturer's recommended procedure. All cells, in 24-well plates, were treated with fresh media and shifted to 33° C. for 12 to 24 h prior to assay.
Competition Binding. Binding reactions were performed with HKRK-B28 cells or in COS-7 cells in 24-well plates. The cells were rinsed with 0.5 mL of binding buffer, and then treated successively with 100 μL binding buffer, 100 μL of binding buffer containing various amounts of unlabeled competitor ligand, and 100 μL of binding buffer containing ca. 100,000 cpm of ^125I-[Aib^1,3,Nle^8,Gln^10,Har^11,Ala^12,Trp^14,Arg^19,Tyr^21]rPTH(1-21) (SEQ. ID. NO. 36) (ca. 26 fmol; final volume=300 μL). Incubations were 4 to 6 h at 4° C., at which time near equilibrium conditions were attained. Cells were then placed on ice, the binding medium was removed, and the monolayer was rinsed three times with 0.5 mL of cold binding buffer. The cells were subsequently lysed with 0.5 mL 5N NaOH and counted for radioactivity. For each tracer and in each experiment, the non-specific binding was determined as the radioactivity that bound in the presence of the same unlabeled peptide at a concentration of 1 μM, and was ˜1% of total radioactivity added for each tracer. The maximum specific binding (B0) was the total radioactivity bound in the absence of competing ligand, corrected for nonspecific binding, and for each tracer, ranged from 8% to 20% of the total radioactivity added. Nonlinear regression was used to calculate binding IC50 values (see below). Scatchard transformations of homologous competition binding data derived from studies with 26 fmol of ^125I-[Aib^1,3,Nle^8,Gln^10,Har^11,Ala^12,Trp^14, Arg^19,Tyr^21]rPTH(1-21) (SEQ. ID. NO. 36) were employed for estimations of apparent equilibrium dissociation constant (kDapps) and total number of ligand binding sites (Bmax), assuming a single class of binding sites and equal affinities of the iodinated and non iodinated ligand.
Data Calculation. Calculations were performed using Microsoft® Excel. Nonlinear regression analyses of binding and cAMP dose-response data were performed using the four-parameter equation: yp=Min+[(Max−Min)/(1+(IC50/x)^slope)]. The Excel Solver function was utilized for parameter optimization, as described previously (Carter, P. H., et al., Endocrinology 140: 4972-4981 (1999); Bowen, W. P., and Jerman, J. C., Trends in Pharmacol. Sci. 16: 413-417 (1995)). […]

[2] = target: T2, hP1R (Homo sapiens, UniProt Q03431); test: Stimulation of inositol phosphate production / phospholipase C in COS-7 cells; format: cell-based
T2 construct: expressed in transfected cells; host or cells: COS-7, transient transfection (FuGENE 6)
T2 sequence (Q03431 27-593): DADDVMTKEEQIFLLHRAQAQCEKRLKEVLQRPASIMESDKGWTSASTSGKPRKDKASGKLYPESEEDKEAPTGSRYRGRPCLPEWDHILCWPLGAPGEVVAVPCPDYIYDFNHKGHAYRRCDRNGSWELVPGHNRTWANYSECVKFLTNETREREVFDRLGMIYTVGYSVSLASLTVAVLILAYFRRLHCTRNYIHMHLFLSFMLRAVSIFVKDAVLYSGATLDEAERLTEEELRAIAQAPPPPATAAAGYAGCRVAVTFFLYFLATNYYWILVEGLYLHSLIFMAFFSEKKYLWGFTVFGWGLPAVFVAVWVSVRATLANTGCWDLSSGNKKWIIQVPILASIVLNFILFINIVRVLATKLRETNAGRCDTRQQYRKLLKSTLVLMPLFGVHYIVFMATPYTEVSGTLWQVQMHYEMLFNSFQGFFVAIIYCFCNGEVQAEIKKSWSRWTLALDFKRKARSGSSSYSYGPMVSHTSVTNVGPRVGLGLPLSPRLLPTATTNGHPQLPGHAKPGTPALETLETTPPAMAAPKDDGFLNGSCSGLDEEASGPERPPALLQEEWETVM
Text: Cell Culture. The cell line HKRK-B28 (Takasu, H., et al., J. Bone Miner. Res. 14:11-20 (1999)) was derived from the porcine kidney cell line, LLC-PK1 by stable transfection with plasmid DNA encoding a recombinant P1R chimera comprised of the opposum P1R from the N-terminus to the mid region of TM3 and the rat P1R from the mid region of TM3 to the C-terminus. The surface density of the P1R in these cells is ˜280,000 receptors per cell. The clonal cell line LdelNt-2 was derived from LLC-PK, cells via stable transfection with a plasmid encoding P1R-delNt, a recombinant human PTH-1 receptor construct in which most of the amino-terminal extracellular domain is deleted. These cells, as well as COS-7 cells and SaOS-2-B10 cells, were cultured at […] in T-75 flasks ([…]) in Dulbecco's modified Eagle's medium (DMEM) supplemented with fetal bovine serum (10%), penicillin G (20 units/ml), streptomycin sulfate (20 μg/ml) and amphotericin B (0.05 μg/ml) in a humidified atmosphere containing 5% CO2. […]
Stimulation of Inositol Phosphate Production. […] The lysate was then applied to an ion exchange column (0.5 mL resin bed) and the total inositol phosphates were eluted as described previously (Berridge, M. J., et al., Biochem. J. 212:473-482 (1983)), and counted in liquid scintillation cocktail.

T1 sequence (P25107+P25961 fused with the stated changes): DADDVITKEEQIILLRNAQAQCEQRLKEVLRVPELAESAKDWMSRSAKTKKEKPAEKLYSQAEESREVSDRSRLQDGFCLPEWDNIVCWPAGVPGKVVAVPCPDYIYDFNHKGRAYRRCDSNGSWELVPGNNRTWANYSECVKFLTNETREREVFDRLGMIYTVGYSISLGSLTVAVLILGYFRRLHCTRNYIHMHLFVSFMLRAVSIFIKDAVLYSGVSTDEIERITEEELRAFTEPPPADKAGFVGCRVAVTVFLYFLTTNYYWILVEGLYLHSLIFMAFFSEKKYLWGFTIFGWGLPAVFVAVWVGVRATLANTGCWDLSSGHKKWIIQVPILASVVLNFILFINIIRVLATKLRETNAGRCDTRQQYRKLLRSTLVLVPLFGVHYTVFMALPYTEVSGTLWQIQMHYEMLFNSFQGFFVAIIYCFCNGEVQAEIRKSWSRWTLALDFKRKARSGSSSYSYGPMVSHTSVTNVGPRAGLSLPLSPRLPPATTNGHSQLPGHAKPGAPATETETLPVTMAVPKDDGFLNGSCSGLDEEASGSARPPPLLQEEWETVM

## CC[C@H](C)[C@H](NC(=O)[C@H](CCC(=O)O)NC(=O)C(C)(C)NC(=O)[C@@H](NC(=O)C1(N)CCCC1)C(C)C)C(=O)N[C@@H](CCC(N)=O)C(=O)N[C@@H](CC(C)C)C(=O)N[C@@H](CCSC)C(=O)N[C@@H](Cc1c[nH]cn1)C(=O)N[C@@H](CCC(N)=O)C(=O)N[C@@H](CCCCNC(=N)N)C(=O)N[C@@H](C)C(=O)N[C@@H](CCCCN)C(=O)N[C@@H](Cc1c[nH]c2ccccc12)C(N)=O [[Ac5c^1,Aib^3,M]PTH(1-14), [Ac5c^1,Aib^3,Gln^10,Har^11,Ala^12,Trp^14]PTH(1-14)NH2] (H-[Ac5c]V[Aib]EIQLMHQ[hArg]AKW-NH2)
[1]
  potency for inhibiting tracer binding relative to [Aib1,3,M]PTH(1-14): 2 fold
[2]
  potency for stimulating phospholipase C relative to [Aib1,3,M]PTH(1-14): 2 fold

From patent publication US7795220B2, “Conformationally constrained parathyroid hormones with alpha-helix stabilizers” (The General Hospital Corporation, priority 2003, dated 2010)
